Earlier results in paper PMC8155022 (Scientific Reports, 2021).

Tests used:
[1] = system: activated CCR6+ T cells from human peripheral blood; set-up: method as in PMID 27905482; conditions: cited from earlier work
[2] = system: patients with moderate to severe plaque psoriasis; set-up: method as in earlier work; conditions: 4 weeks of treatment, cited from earlier work

Compound	IL-10 production [1]	IL-17A production [1]	reduction of IL-17A and IL-17F in patient serum [2]	efficacy in patients with moderate to severe plaque psoriasis ([2]; Phase 2a)
COc1nc2ccc([C@@](O)(c3ccc(C)nc3C)c3cnnn3C)cc2c(Cl)c1Cc1ccc(C(F)(F)F)cc1 [JNJ-54271074]	slightly increased	greatly reducing	–	–
CCS(=O)(=O)c1ccc(CNC(=O)c2cnc3c(c2)CN(C[C@H]2CC[C@H](C(F)(F)F)CC2)[C@H]3C(C)C)nc1 [VTP-43742]	–	–	up to 75%	showed efficacy
